Data reported in ChEMBL document CHEMBL1671726 (Antimicrob Agents Chemother, 2010).

Legend:
Experiment in all cases: microbe, parasite or virus in culture
Plasmodium falciparum [1] = details: F08B61, 72 h
Plasmodium falciparum [2] = details: F09A9, 72 h
Plasmodium falciparum [3] = details: F09N40, 72 h
Plasmodium falciparum [4] = details: F08B7, 72 h
Plasmodium falciparum [5] = details: F07-8, 72 h
Plasmodium falciparum [6] = details: F09N29, 72 h
Plasmodium falciparum [7] = details: F07-23, 72 h
Plasmodium falciparum [8] = details: F09A61, 72 h
Plasmodium falciparum [9] = details: F08B2, 72 h
Plasmodium falciparum [10] = details: F09A10, 72 h
Plasmodium falciparum [11] = details: F07-35, 72 h
Plasmodium falciparum [12] = details: F07-3, 72 h
Plasmodium falciparum [13] = details: F07-7, 72 h
Plasmodium falciparum [14] = details: F09N66, 72 h
Plasmodium falciparum [15] = details: W2, 72 h
Plasmodium falciparum [16] = details: F09N6, 72 h
Plasmodium falciparum [17] = details: F07-42, 72 h
Plasmodium falciparum [18] = details: F08B27, 72 h
Plasmodium falciparum [19] = details: F08B40, 72 h
Plasmodium falciparum [20] = details: F09A55, 72 h
Plasmodium falciparum [21] = details: F09N58, 72 h
Plasmodium falciparum [22] = details: F09N35, 72 h
Plasmodium falciparum [23] = details: 72 h
Description: Antimicrobial activity against Plasmodium falciparum harboring pfnhe1 ms4760 haplotype 3 carrying 1 copy of DNNND repeat and His/Asp ratio 6:2 infected in human erythrocytes after 72 hrs by SYBR green I-based fluorescence assay

Plasmodium falciparum [24] = details: F09N64, 72 h
Plasmodium falciparum [25] = details: 72 h; remark: listed apart in the source
Description: Antimicrobial activity against Plasmodium falciparum harboring pfnhe1 ms4760 haplotype 35 carrying 1 copy of DNNND repeat and His/Asp ratio 5:2 infected in human erythrocytes after 72 hrs by SYBR green I-based fluorescence assay

Plasmodium falciparum [26] = details: F08B9, 72 h
Plasmodium falciparum [27] = details: K1, 72 h
Plasmodium falciparum [28] = details: F08B41, 72 h
Plasmodium falciparum [29] = details: F09A41, 72 h
Plasmodium falciparum [30] = details: 72 h; remark: listed apart in the source
Description: Antimicrobial activity against Plasmodium falciparum harboring pfnhe1 ms4760 haplotype 9 carrying 3 copies of DNNND repeat and His/Asp ratio 7:6 infected in human erythrocytes after 72 hrs by SYBR green I-based fluorescence assay

Plasmodium falciparum [31] = details: F07-31, 72 h
Plasmodium falciparum [32] = details: F08B53, 72 h
Plasmodium falciparum [33] = details: F07-46, 72 h
Plasmodium falciparum [34] = details: F09A54, 72 h
Plasmodium falciparum [35] = details: F07-28, 72 h
Plasmodium falciparum [36] = details: F07-13, 72 h

## C=C[C@H]1CN2CC[C@H]1C[C@H]2[C@H](O)c1ccnc2ccc(OC)cc12 [QUININE]
Plasmodium falciparum [1]
  IC50: 1.13 µM
Plasmodium falciparum [2]
  IC50: 0.562 µM
Plasmodium falciparum [3]
  IC50: 2.12 µM
Plasmodium falciparum [4]
  IC50: 1.1 µM
Plasmodium falciparum [5]
  IC50: 0.874 µM
Plasmodium falciparum [6]
  IC50: 0.853 µM
Plasmodium falciparum [7]
  IC50: 0.447 µM
Plasmodium falciparum [8]
  IC50: 0.373 µM
Plasmodium falciparum [9]
  IC50: 1.02 µM
Plasmodium falciparum [10]
  IC50: 0.716 µM
Plasmodium falciparum [11]
  IC50: 0.821 µM
Plasmodium falciparum [12]
  IC50: 0.875 µM
Plasmodium falciparum [13]
  IC50: 0.456 µM
Plasmodium falciparum [14]
  IC50: 0.711 µM
Plasmodium falciparum [15]
  IC50: 0.72 µM
Plasmodium falciparum [16]
  IC50: 0.71 µM
Plasmodium falciparum [17]
  IC50: 0.388 µM
Plasmodium falciparum [18]
  IC50: 0.87 µM
Plasmodium falciparum [19]
  IC50: 0.26 µM
Plasmodium falciparum [20]
  IC50: 0.149 µM
Plasmodium falciparum [21]
  IC50: 0.448 µM
Plasmodium falciparum [22]
  IC50: 0.905 µM
Plasmodium falciparum [23]
  IC50: 0.223 µM
Plasmodium falciparum [24]
  IC50: 0.475 µM
Plasmodium falciparum [25]
  IC50: 0.26 µM
Plasmodium falciparum [26]
  IC50: 0.218 µM
Plasmodium falciparum [27]
  IC50: 0.407 µM
Plasmodium falciparum [28]
  IC50: 0.886 µM
Plasmodium falciparum [29]
  IC50: 1.29 µM
Plasmodium falciparum [30]
  IC50: 0.837 µM
Plasmodium falciparum [31]
  IC50: 0.433 µM
Plasmodium falciparum [32]
  IC50: 0.468 µM
Plasmodium falciparum [33]
  IC50: 0.894 µM
Plasmodium falciparum [34]
  IC50: 0.243 µM
Plasmodium falciparum [35]
  IC50: 0.473 µM
Plasmodium falciparum [36]
  IC50: 0.365 µM
